Laboratory results: PubChem BioAssay (NCI)
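Test compounds were applied to cells in 96-well plates for 48 hours at 5 doses. GI50 is the concentration that inhibits growth by half. The concentration for full growth arrest is given as TGI.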

Tests used:
Experiment in all cases: NCI tumour cell line growth inhibition, 48 h
786-0 renal = tested on: 786-0 renal
A498 renal = tested on: A498 renal
A549 NSCLC = tested on: A549 NSCLC
ACHN renal = tested on: ACHN renal
BT-549 breast = tested on: BT-549 breast
CAKI-1 renal = tested on: CAKI-1 renal
CCRF-CEM leukemia = tested on: CCRF-CEM leukemia
COLO 205 colon = tested on: COLO 205 colon
DU-145 prostate = tested on: DU-145 prostate
EKVX NSCLC = tested on: EKVX NSCLC
HCC-2998 colon = tested on: HCC-2998 colon
HCT-116 colon = tested on: HCT-116 colon
HCT-15 colon = tested on: HCT-15 colon
HOP-62 NSCLC = tested on: HOP-62 NSCLC
HOP-92 NSCLC = tested on: HOP-92 NSCLC
HS 578T breast = tested on: HS 578T breast
HT29 colon = tested on: HT29 colon
IGROV1 ovarian = tested on: IGROV1 ovarian
K-562 leukemia = tested on: K-562 leukemia
KM12 colon = tested on: KM12 colon
M14 melanoma = tested on: M14 melanoma
MALME-3M melanoma = tested on: MALME-3M melanoma
MCF7 breast = tested on: MCF7 breast
MDA-MB-231 breast = tested on: MDA-MB-231 breast
MDA-MB-435 = tested on: MDA-MB-435
MOLT-4 leukemia = tested on: MOLT-4 leukemia
NCI-H226 lung = tested on: NCI-H226 lung
NCI-H23 lung = tested on: NCI-H23 lung
NCI-H460 lung = tested on: NCI-H460 lung
NCI-H522 lung = tested on: NCI-H522 lung
NCI/ADR-RES ovarian = tested on: NCI/ADR-RES ovarian
OVCAR-3 ovarian = tested on: OVCAR-3 ovarian
OVCAR-5 ovarian = tested on: OVCAR-5 ovarian
OVCAR-8 ovarian = tested on: OVCAR-8 ovarian
PC-3 prostate = tested on: PC-3 prostate
RPMI-8226 leukemia = tested on: RPMI-8226 leukemia
RXF 393 renal = tested on: RXF 393 renal
SF-268 CNS = tested on: SF-268 CNS
SF-295 CNS = tested on: SF-295 CNS
SF-539 CNS = tested on: SF-539 CNS
SK-MEL-2 melanoma = tested on: SK-MEL-2 melanoma
SK-MEL-28 melanoma = tested on: SK-MEL-28 melanoma
SK-MEL-5 melanoma = tested on: SK-MEL-5 melanoma
SK-OV-3 ovarian = tested on: SK-OV-3 ovarian
SN12C renal = tested on: SN12C renal
SNB-19 CNS = tested on: SNB-19 CNS
SNB-75 CNS = tested on: SNB-75 CNS
SW-620 colon = tested on: SW-620 colon
T-47D breast = tested on: T-47D breast
TK-10 renal = tested on: TK-10 renal
U251 CNS = tested on: U251 CNS
UACC-257 melanoma = tested on: UACC-257 melanoma
UACC-62 melanoma = tested on: UACC-62 melanoma
UO-31 renal = tested on: UO-31 renal

CNC(C)C(=O)N[C@H](C(=O)N1CCC[C@@H]1CN(CCc1ccccc1)C(=O)C(F)(F)F)[C@H](C)OCC#CC#CCO[C@H](C)[C@H](NC(=O)[C@H](C)NC)C(=O)N1CCC[C@H]1CN(CCc1ccccc1)C(=O)C(F)(F)F (stereo partly drawn)
GI50 (786-0 renal): 1650 nM | TGI (786-0 renal): 3250 nM | GI50 (A498 renal): 1030 nM | TGI (A498 renal): 2610 nM | GI50 (A549 NSCLC): 1720 nM | TGI (A549 NSCLC): 3270 nM | GI50 (ACHN renal): 1850 nM | TGI (ACHN renal): 3440 nM | GI50 (BT-549 breast): < 10 nM | TGI (BT-549 breast): 1690 nM | GI50 (CAKI-1 renal): 2390 nM | TGI (CAKI-1 renal): 5510 nM | GI50 (CCRF-CEM leukemia): 602 nM | TGI (CCRF-CEM leukemia): 2540 nM | GI50 (COLO 205 colon): 1420 nM | TGI (COLO 205 colon): 2990 nM | GI50 (DU-145 prostate): 1560 nM | TGI (DU-145 prostate): 3050 nM | GI50 (EKVX NSCLC): 1630 nM | TGI (EKVX NSCLC): 3340 nM | GI50 (HCC-2998 colon): 1450 nM | TGI (HCC-2998 colon): 3040 nM | GI50 (HCT-116 colon): 1430 nM | TGI (HCT-116 colon): 2780 nM | GI50 (HCT-15 colon): 1760 nM | TGI (HCT-15 colon): 3750 nM | GI50 (HOP-62 NSCLC): 729 nM | TGI (HOP-62 NSCLC): 2460 nM | GI50 (HOP-92 NSCLC): 373 nM | TGI (HOP-92 NSCLC): 1610 nM | GI50 (HS 578T breast): 1550 nM | TGI (HS 578T breast): 3650 nM | GI50 (HT29 colon): 465 nM | TGI (HT29 colon): 1530 nM | GI50 (IGROV1 ovarian): 2130 nM | TGI (IGROV1 ovarian): 4380 nM | GI50 (K-562 leukemia): 366 nM | TGI (K-562 leukemia): 1490 nM | GI50 (KM12 colon): 1710 nM | TGI (KM12 colon): 3250 nM | GI50 (M14 melanoma): 1790 nM | TGI (M14 melanoma): 3410 nM | GI50 (MALME-3M melanoma): 11.5 nM | TGI (MALME-3M melanoma): 716 nM | GI50 (MCF7 breast): 239 nM | TGI (MCF7 breast): 1760 nM | GI50 (MDA-MB-231 breast): < 10 nM | TGI (MDA-MB-231 breast): < 10 nM | GI50 (MDA-MB-435): 1630 nM | TGI (MDA-MB-435): 3460 nM | GI50 (MOLT-4 leukemia): 1750 nM | TGI (MOLT-4 leukemia): 4100 nM | GI50 (NCI-H226 lung): 1540 nM | TGI (NCI-H226 lung): 3060 nM | GI50 (NCI-H23 lung): 1160 nM | TGI (NCI-H23 lung): 2680 nM | GI50 (NCI-H460 lung): 1830 nM | TGI (NCI-H460 lung): 3590 nM | GI50 (NCI-H522 lung): 724 nM | TGI (NCI-H522 lung): 2180 nM | GI50 (NCI/ADR-RES ovarian): 8190 nM | TGI (NCI/ADR-RES ovarian): 27300 nM | GI50 (OVCAR-3 ovarian): 1420 nM | TGI (OVCAR-3 ovarian): 2860 nM | GI50 (OVCAR-5 ovarian): 1880 nM | TGI (OVCAR-5 ovarian): 3680 nM | GI50 (OVCAR-8 ovarian): 670 nM | TGI (OVCAR-8 ovarian): 2190 nM | GI50 (PC-3 prostate): 1720 nM | TGI (PC-3 prostate): 3230 nM | GI50 (RPMI-8226 leukemia): 1530 nM | TGI (RPMI-8226 leukemia): 3520 nM | GI50 (RXF 393 renal): 77.1 nM | TGI (RXF 393 renal): 486 nM | GI50 (SF-268 CNS): 1940 nM | TGI (SF-268 CNS): 3570 nM | GI50 (SF-295 CNS): 1310 nM | TGI (SF-295 CNS): 2840 nM | GI50 (SF-539 CNS): < 10 nM | TGI (SF-539 CNS): 199 nM | GI50 (SK-MEL-2 melanoma): < 10 nM | TGI (SK-MEL-2 melanoma): 1410 nM | GI50 (SK-MEL-28 melanoma): 1540 nM | TGI (SK-MEL-28 melanoma): 2960 nM | GI50 (SK-MEL-5 melanoma): 1310 nM | TGI (SK-MEL-5 melanoma): 2620 nM | GI50 (SK-OV-3 ovarian): < 10 nM | TGI (SK-OV-3 ovarian): < 10 nM | GI50 (SN12C renal): 1780 nM | TGI (SN12C renal): 3320 nM | GI50 (SNB-19 CNS): 1810 nM | TGI (SNB-19 CNS): 3430 nM | GI50 (SNB-75 CNS): < 37 nM | TGI (SNB-75 CNS): 764 nM | GI50 (SW-620 colon): 1630 nM | TGI (SW-620 colon): 3160 nM | GI50 (T-47D breast): 1640 nM | TGI (T-47D breast): 3300 nM | GI50 (TK-10 renal): 2220 nM | TGI (TK-10 renal): 3800 nM | GI50 (U251 CNS): 1100 nM | TGI (U251 CNS): 2480 nM | GI50 (UACC-257 melanoma): 1280 nM | TGI (UACC-257 melanoma): 2720 nM | GI50 (UACC-62 melanoma): 1770 nM | TGI (UACC-62 melanoma): 3240 nM | GI50 (UO-31 renal): 2140 nM | TGI (UO-31 renal): 3980 nM
